Experiments:
Type in all cases: cell-based
[1] = system: human peripheral blood mononuclear cells (PBMC); assay: Human peripheral blood mononuclear cell proliferation in vitro ((3H)thymidine incorporation)
Protocol: (§1) Substances, used in in vitro experiments, were dissolved in dimethyl sulfoxide (DMSO) (Kemika, Croatia) at concentrations of 50 mM and 10 mM and were further diluted to the final concentrations of […] in 1 mL Dulbecco's modified Eagle medium (DMEM) supplemented with 1% heat inactivated fetal bovine serum (FBS), 1% glutamax, 50 U/ml penicillin, 50 μg/ml streptomycin and 2.5 μg/mL Fungizone (amphotericin B). Media and all media supplements were purchased from Gibco, Australia, except FBS that was from Sigma, USA.
Heparinized peripheral blood was obtained from healthy donors, and peripheral blood mononuclear cells (PBMC) were isolated by Histopaque 1077 (Sigma, USA) density centrifugation at 400 g for 30 minutes. Collected PBMC were centrifuged in plasma at 400 g/10 min, resuspended and washed in RPMI 1640 (Institute of Immunology, Croatia) by centrifugation.
Influence of substances at two different concentrations (50 μM and 10 μM) on proliferation of human peripheral blood mononuclear cells (PBMC) was assessed.
Heparinized peripheral blood was obtained from healthy donors, and PBMC were isolated by Histopaque 1077 (Sigma, USA) density centrifugation at 400 g for 30 minutes. 5×10^4 cells/well were cultured for 3 days in the RPMI medium as described above, in the presence (positive control) or absence (negative control) of stimulators [PHA (2.5 μg/mL) (Sigma, USA) or both PMA (10 ng/mL) (Sigma, USA) and ionomycin (500 ng/mL) (Calbiochem, USA)] and tested substances at 37° C. in 5% CO2 and 90% humidity. The cells were pulsed with 1 μCi of (^3H)thymidine (Amersham, USA) per well during the last 18 h of the cultures and were harvested on a 96-well filter (Packard Bioscience, USA) with a multiple cell harvester (Packard, USA). The incorporation of (^3H)thymidine in activated cells was measured by TopCount NXT (Packard, USA).
Inhibition of cell proliferation (as a percentage) was calculated using the following formula: % inhibition=(1−(^3H)thymidine incorporation expressed in counts per minute (cpm) in sample/(3H)thymidine incorporation expressed in cpm in positive control)×100 where “positive control” refers to stimulated samples not treated with substances.

[2] = system: human IL-1β; assay: Inhibition of IL-1β production by stimulated human peripheral blood leukocytes in vitro (ELISA); details: PBL
Protocol: as §1
(§2) Peripheral blood leukocytes (PBL) were obtained from venous blood of healthy volunteers by sedimentation on 2% dextran T-500 (Amersham Biosciences, USA) and subsequent centrifugations of leukocyte-rich plasma.
(§3) Peripheral blood leukocytes (PBL), isolated as described above, were seeded in a 48-well plate at a concentration of 3-5×10^6 cell per well in culture medium consisting of RPMI 1640 medium (Institute of Immunology, Croatia) supplemented with 10% heat-inactivated fetal calf serum (FCS, Biowhittaker, USA), 100 U/ml penicillin (Gibco, Australia), 100 μg/ml streptomycin (Gibco, Australia) and 2 mM L-glutamine (Gibco, Australia), and preincubated with the tested compounds for 2 h at 37° C., in an atmosphere of 5% CO2, and 90% humidity. Afterwards, stimuli (Sigma, USA) were added to a final concentration of 2 μg/mL lipopolysaccharide (LPS), 1 μg/mL phorbol 12-myristate 13-acetate (PMA) or 120 μg/mL zymosan. Samples were incubated overnight under conditions described above. At the end of incubation supernatants were transferred to eppendorf tubes and centrifuged for 10 min at 1500 g. Concentrations of human TNF-α, IL-1β, IL-6 and IL-8 were determined in cell supernatants by sandwich ELISA, using capture and detection antibodies (R&D, USA) according to manufacturer's recommendations.
(§4) Inhibition (as percentage) was calculated using the following formula: % inhibition=(1−concentration of cytokines in sample/concentration of cytokines in positive control)×100 where “positive control” refers to stimulated samples not treated with substances.

[3] = system: human IL-8; assay: Inhibition of IL-8 production by stimulated human peripheral blood leukocytes in vitro (ELISA); details: PBL
Protocol: as §1, §2, §3, §4

[4] = system: human TNF-α; assay: Inhibition of TNF-α production by stimulated human peripheral blood leukocytes in vitro (ELISA); details: PBL
Protocol: as §1, §2, §3, §4

[5] = system: human IL-6; assay: Inhibition of IL-6 production by stimulated human peripheral blood leukocytes in vitro (ELISA); details: PBL
Protocol: as §1, §2, §3, §4

[6] = LPS stimulation, compound 10 μM
[7] = LPS stimulation, compound 50 μM
[8] = PMA stimulation, compound 10 μM
[9] = PMA stimulation, compound 50 μM
[10] = zymosan stimulation, compound 10 μM
[11] = zymosan stimulation, compound 50 μM

Substance: 3-O-(3-Diethylamino-propionyl)-3-O-decladinosyl-6-O-methyl-9a-aza-9a-homoerythromycin A [Example 2]
- Percentage of inhibition of proliferation of stimulated PBMC ([1]; PHA stimulation, compound 10 μM): 80%
- Percentage of inhibition of proliferation of stimulated PBMC ([1]; PHA stimulation, compound 50 μM): 98%
- Percentage of inhibition of proliferation of stimulated PBMC ([1]; PMA + ionomycin stimulation, compound 10 μM): 0%
- Percentage of inhibition of proliferation of stimulated PBMC ([1]; PMA + ionomycin stimulation, compound 50 μM): 99%
- Percentage of inhibition of IL-1β production [2, 6]: 83%
- Percentage of inhibition of IL-1β production [2, 7]: 91%
- Percentage of inhibition of IL-1β production [2, 8]: 60%
- Percentage of inhibition of IL-1β production [2, 9]: 78%
- Percentage of inhibition of IL-1β production [2, 10]: 96%
- Percentage of inhibition of IL-1β production [2, 11]: 94%
- Percentage of inhibition of IL-8 production [3, 6]: 40%
- Percentage of inhibition of IL-8 production [3, 7]: 96%
- Percentage of inhibition of IL-8 production [3, 8]: 0%
- Percentage of inhibition of IL-8 production [3, 9]: 92%
- Percentage of inhibition of IL-8 production [3, 10]: 32%
- Percentage of inhibition of IL-8 production [3, 11]: 87%
- Percentage of inhibition of TNF-α production [4, 6]: 37%
- Percentage of inhibition of TNF-α production [4, 7]: 80%
- Percentage of inhibition of TNF-α production [4, 8]: 34%
- Percentage of inhibition of TNF-α production [4, 9]: 55%
- Percentage of inhibition of TNF-α production [4, 10]: 13%
- Percentage of inhibition of TNF-α production [4, 11]: 60%
- Percentage of inhibition of IL-6 production [5, 6]: 40%
- Percentage of inhibition of IL-6 production [5, 7]: 94%
- Percentage of inhibition of IL-6 production [5, 8]: 17%
- Percentage of inhibition of IL-6 production [5, 9]: 68%
- Percentage of inhibition of IL-6 production [5, 10]: 45%
- Percentage of inhibition of IL-6 production [5, 11]: 91%

From patent publication US7910559B2, “Decladinosyl-macrolides with anti-inflammatory activity” (GlaxoSmithKline istrazivacki centar Zagreb d.o.o., priority 2005, dated 2011)
